Laboratory results taken from US8481732B2 (Incyte Corporation, priority 2009, dated 2013).

Target: T1, histamine H4 receptor (Homo sapiens, UniProt Q9H3N8)
T1 construct: expressed in transfected cells; host or cells: HEK293SFM cells (membrane preparation)
Test: H4 Membrane Binding Assay (3H-Histamine displacement)
Conditions: membranes of recombinant HEK293SFM cells, 10 nM 3H-Histamine, 1.5 hr at room temperature
Method: Recombinant HEK293SFM cells expressing human H1, H2, H3, H4 or mouse H4 were harvested (Packard Filtermate Harvester) in ice-cold Tris-HCl, (50 mM, pH 7.5, Sigma) with protease inhibitors (Roche) and homogenized with a Polytron homogenizer. The homogenate was centrifuged for 5 minutes at 1000 g to remove nuclei and unbroken cells. The supernatant was centrifuged at 50000 g for 30 minutes, and the resulting pellet was re-suspended in ice-cold Tris-HCl (50 mM, pH 7.5). […] Nonspecific binding was determined by inclusion of 1000× unlabeled ligands. The bound radioactivity was separated by filtration through polyethyleneimine-treated GF/B filters (Perkin Elmer). The filters were washed eight times with ice-cold Tris-HCl (50 mM, pH 7.5), and radioactivity retained on the filters was measured by liquid scintillation counting. The binding data were evaluated with Prism.

T1 sequence (Q9H3N8 whole entry): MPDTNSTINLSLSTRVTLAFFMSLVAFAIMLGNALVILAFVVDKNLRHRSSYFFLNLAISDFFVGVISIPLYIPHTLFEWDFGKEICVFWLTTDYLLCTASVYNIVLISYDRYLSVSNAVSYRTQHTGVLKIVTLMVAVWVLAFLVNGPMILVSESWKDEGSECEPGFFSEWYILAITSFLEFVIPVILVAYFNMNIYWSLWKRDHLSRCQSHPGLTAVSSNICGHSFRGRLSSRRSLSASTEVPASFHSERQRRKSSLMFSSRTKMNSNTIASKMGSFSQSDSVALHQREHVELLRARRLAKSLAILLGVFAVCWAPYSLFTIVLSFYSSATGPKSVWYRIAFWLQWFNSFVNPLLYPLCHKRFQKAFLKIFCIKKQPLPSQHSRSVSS

Row | Structure (SMILES) | IC50 [µM]
1 | CN1CCN(c2nc(N)nc3cc(C(=O)NCC4CC4)ccc23)CC1 [Example 25, 2-Amino-N-(cyclopropylmethyl)-4-(4-methylpiperazin-1-yl)quinazoline-7-carboxamide] | 0.579
2 | CNC(=O)c1ccc2c(N3CCN(C)CC3)nc(N)nc2c1 [Example 26, 2-Amino-N-methyl-4-(4-methylpiperazin-1-yl)quinazoline-7-carboxamide] | 0.495
3 | CN1CCN(c2nc(N)nc3cc(C(=O)Nc4cccc(Cl)c4)ccc23)CC1 [Example 27, 2-Amino-N-(3-chlorophenyl)-4-(4-methylpiperazin-1-yl)quinazoline-7-carboxamide] | 0.896
4 | CC(C)Cc1ccc(C(C)NC(=O)c2ccc3c(N4CCN(C)CC4)nc(N)nc3c2)cc1 (stereo not drawn) [Example 28, 2-Amino-N-[1-(4-isobutylphenyl)ethyl]-4-(4-methylpiperazin-1-yl)quinazoline-7-carboxamide] | 0.171
5 | CC(NC(=O)c1ccc2c(N3CCN(C)CC3)nc(N)nc2c1)c1ccc(Oc2ccccc2)cc1 (stereo not drawn) [Example 29, 2-Amino-4-(4-methylpiperazin-1-yl)-N-[1-(4-henoxyphenyl)ethyl]quinazoline-7-carboxamide] | 0.157
6 | COc1ccc([C@@H](C)NC(=O)c2ccc3c(N4CCN(C)CC4)nc(N)nc3c2)cc1 [Example 30, 2-Amino-N-[(1R)-1-(4-methoxyphenyl)ethyl]-4-(4-methylpiperazin-1-yl)quinazoline-7-carboxamide] | 0.492
7 | CC(NC(=O)c1ccc2c(N3CCN(C)CC3)nc(N)nc2c1)c1ccc(Br)cc1 (stereo not drawn) [Example 31, 2-Amino-N-[1-(4-bromophenyl)ethyl]-4-(4-methylpiperazin-1-yl)quinazoline-7-carboxamide] | 0.355
8 | Cc1ccc([C@H](C)NC(=O)c2ccc3c(N4CCN(C)CC4)nc(N)nc3c2)cc1 [Example 32, 2-Amino-N-[(1S)-1-(4-methylphenyl)ethyl]-4-(4-methylpiperazin-1-yl)quinazoline-7-carboxamide] | 0.334
9 | CN1CCN(c2nc(N)nc3cc(C(=O)NCc4ccc(-c5ccccc5)cc4)ccc23)CC1 [Example 33] | 0.19
10 | CN1CCN(c2nc(N)nc3cc(C(=O)NCc4ccc(Oc5ccccc5)cc4)ccc23)CC1 [Example 34, 2-Amino-4-(4-methylpiperazin-1-yl)-N-(4-phenoxybenzyl)quinazoline-7-carboxamide] | 0.106
11 | CN1CCN(c2nc(N)nc3cc(C(=O)Nc4ccc(Oc5ccccc5)cc4)ccc23)CC1 [Example 35, 2-Amino-4-(4-methylpiperazin-1-yl)-N-(4-phenoxyphenyl)quinazoline-7-carboxamide] | 0.287
12 | Cc1ccc(CNC(=O)c2ccc3c(N4CCN(C)CC4)nc(N)nc3c2)cc1Cl [Example 36, 2-Amino-N-(3-chloro-4-methylbenzyl)-4-(4-methylpiperazin-1-yl)quinazoline-7-carboxamide] | 0.126
13 | CN1CCN(c2nc(N)nc3cc(C(=O)NCCc4ccccc4)ccc23)CC1 [Example 37, 2-Amino-4-(4-methylpiperazin-1-yl)-N-(2-phenylethyl)quinazoline-7-carboxamide] | 0.129
14 | CN1CCN(c2nc(N)nc3cc(C(=O)NCCCc4ccccc4)ccc23)CC1 [Example 38, 2-Amino-4-(4-methylpiperazin-1-yl)-N-(3-phenylpropyl)quinazoline-7-carboxamide] | 0.106
15 | CN1CCN(c2cc(-c3ccc4c(c3)CN(C(=O)c3cccc(Cl)c3)CC4)nc(N)n2)CC1 [Example 39, 4-[2-(3-Chlorobenzoyl)-1,2,3,4-tetrahydroisoquinolin-7-yl]-6-(4-methylpiperazin-1-yl)pyrimidin-2-amine] | 0.186
16 | CN1CCN(c2cc(-c3ccc4c(c3)CN(C(=O)Nc3cccc(Cl)c3F)CC4)nc(N)n2)CC1 [Example 40, 7-[2-Amino-6-(4-methylpiperazin-1-yl)pyrimidin-4-yl]-N-(3-chloro-2-fluorophenyl)-3,4-dihydroisoquinoline-2(1H)-carboxamide] | 0.016
17 | CN1CCN(c2cc(-c3ccc4c(c3)CN(C(=O)CC3CCCC3)CC4)nc(N)n2)CC1 [Example 41, 4-[2-(Cyclopentylacetyl)-1,2,3,4-tetrahydroisoquinolin-7-yl]-6-(4-methylpiperazin-1-yl)pyrimidin-2-amine] | 0.028

Row | Structure (SMILES) | IC50 [µM]
18 | Cc1cccnc1N1CCC(NC(=O)N2CCc3ccc(-c4cc(N5CCN(C)CC5)nc(N)n4)cc3C2)CC1 [Example 42, 7-[2-Amino-6-(4-methylpiperazin-1-yl)pyrimidin-4-yl]-N-[1-(3-methylpyridin-2-yl)piperidin-4-yl]-3,4-dihydroisoquinoline-2(1H)-carboxamide] | 0.103
19 | CN1CCN(c2cc(-c3ccc4c(c3)CN(C(=O)Nc3ccc(C#N)cn3)CC4)nc(N)n2)CC1 [Example 43, 7-[2-Amino-6-(4-methylpiperazin-1-yl)pyrimidin-4-yl]-N-(5-cyanopyridin-2-yl)-3,4-dihydroisoquinoline-2(1H)-carboxamide] | 0.058
20 | CN1CCN(c2cc(-c3ccc4c(c3)CN(C(=O)Nc3ccc(C#N)nc3)CC4)nc(N)n2)CC1 [Example 44, 7-[2-Amino-6-(4-methylpiperazin-1-yl)pyrimidin-4-yl]-N-(6-cyanopyridin-3-yl)-3,4-dihydroisoquinoline-2(1H)-carboxamide] | 0.118
21 | COC(=O)c1ccc(NC(=O)N2CCc3ccc(-c4cc(N5CCN(C)CC5)nc(N)n4)cc3C2)nc1 [Example 45, Methyl 6-({[7-[2-amino-6-(4-methylpiperazin-1-yl)pyrimidin-4-yl]-3,4-dihydroisoquinolin-2(1H)-yl]carbonyl}amino)nicotinate] | 0.06
22 | COc1ccc(NC(=O)N2CCc3ccc(-c4cc(N5CCN(C)CC5)nc(N)n4)cc3C2)cn1 [Example 46, 7-[2-Amino-6-(4-methylpiperazin-1-yl)pyrimidin-4-yl]-N-(6-methoxypyridin-3-yl)-3,4-dihydroisoquinoline-2(1H)-carboxamide] | 0.07
23 | CN1CCN(c2cc(-c3ccc4c(c3)CN(C(=O)NC3(C)CCCCC3)CC4)nc(N)n2)CC1 [Example 47, 7-[2-Amino-6-(4-methylpiperazin-1-yl)pyrimidin-4-yl]-N-(1-methylcyclohexyl)-3,4-dihydroisoquinoline-2(1H)-carboxamide] | 0.027
24 | CN1CCN(c2cc(-c3ccc4c(c3)CN(C(=O)Nc3nc(-c5ccc(Cl)cc5)cs3)CC4)nc(N)n2)CC1 [Example 48, 7-[2-Amino-6-(4-methylpiperazin-1-yl)pyrimidin-4-yl]-N-[4-(4-chlorophenyl)-1,3-thiazol-2-yl]-3,4-dihydroisoquinoline-2(1H)-carboxamide] | 0.099
25 | CN1CCN(c2cc(-c3ccc4c(c3)CN(C(=O)Nc3nc(C(F)(F)F)cs3)CC4)nc(N)n2)CC1 [Example 50, 7-[2-Amino-6-(4-methylpiperazin-1-yl)pyrimidin-4-yl]-N-[4-(trifluoromethyl)-1,3-thiazol-2-yl]-3,4-dihydroisoquinoline-2(1H)-carboxamide] | 0.058
26 | CC(NC(=O)N1CCc2ccc(-c3cc(N4CCN(C)CC4)nc(N)n3)cc2C1)c1ccccc1 (stereo not drawn) [Example 51, 7-[2-Amino-6-(4-methylpiperazin-1-yl)pyrimidin-4-yl]-N-(1-phenylethyl)-3,4-dihydroisoquinoline-2(1H)-carboxamide] | 0.063
27 | CCOC(=O)N1CCC(NC(=O)N2CCc3ccc(-c4cc(N5CCN(C)CC5)nc(N)n4)cc3C2)CC1 [Example 52, Ethyl 4-({[7-[2-amino-6-(4-methylpiperazin-1-yl)pyrimidin-4-yl]-3,4-dihydroisoquinolin-2(1H)-yl]carbonyl}amino)piperidine-1-carboxylate] | 0.13
28 | CN1CCN(c2cc(-c3ccc4c(c3)CN(C(=O)NC3CCC(C(=O)N(C)C)CC3)CC4)nc(N)n2)CC1 (stereo not drawn) [Example 54, 7-[2-Amino-6-(4-methylpiperazin-1-yl)pyrimidin-4-yl]-N-{4-[(dimethylamino)carbonyl]cyclohexyl}-3,4-dihydroisoquinoline-2(1H)-carboxamide] | 0.439
29 | CO[C@H]1CC[C@H](NC(=O)N2CCc3ccc(-c4cc(N5CCN(C)CC5)nc(N)n4)cc3C2)CC1 [Example 56, 7-[2-Amino-6-(4-methylpiperazin-1-yl)pyrimidin-4-yl]-N-(trans-4-methoxycyclohexyl)-3,4-dihydroisoquinoline-2(1H)-carboxamide] | 0.21
30 | CO[C@@H]1Cc2ccccc2[C@@H]1NC(=O)N1CCc2ccc(-c3cc(N4CCN(C)CC4)nc(N)n3)cc2C1 [Example 57, 7-[2-Amino-6-(4-methylpiperazin-1-yl)pyrimidin-4-yl]-N-[(1S,2R)-2-methoxy-2,3-dihydro-1H-inden-1-yl]-3,4-dihydroisoquinoline-2(1H)-carboxamide] | 0.093
31 | CO[C@H]1Cc2ccccc2[C@H]1NC(=O)N1CCc2ccc(-c3cc(N4CCN(C)CC4)nc(N)n3)cc2C1 [Example 58, 7-[2-Amino-6-(4-methylpiperazin-1-yl)pyrimidin-4-yl]-N-[(1R,2S)-2-methoxy-2,3-dihydro-1H-inden-1-yl]-3,4-dihydroisoquinoline-2(1H)-carboxamide] | 0.165
32 | CN1CCN(c2cc(-c3ccc4c(c3)CN(C(=O)NC35CC6CC(CC(C6)C3)C5)CC4)nc(N)n2)CC1 [Example 59, N-1-Adamantyl-7-[2-amino-6-(4-methylpiperazin-1-yl)pyrimidin-4-yl]-3,4-dihydroisoquinoline-2(1H)-carboxamide] | 0.019
33 | CN1CCN(c2cc(-c3ccc4c(c3)CN(C(=O)C(F)(F)c3ccccc3)CC4)nc(N)n2)CC1 [Example 61, 4-{2-[Difluoro(phenyl)acetyl]-1,2,3,4-tetrahydroisoquinolin-7-yl}-6-(4-methylpiperazin-1-yl)pyrimidin-2-amine] | 0.07
